For test [1], the target named is T1, human alpha2A receptors (Homo sapiens, UniProt P08913).
T1 sequence (P08913 1-465): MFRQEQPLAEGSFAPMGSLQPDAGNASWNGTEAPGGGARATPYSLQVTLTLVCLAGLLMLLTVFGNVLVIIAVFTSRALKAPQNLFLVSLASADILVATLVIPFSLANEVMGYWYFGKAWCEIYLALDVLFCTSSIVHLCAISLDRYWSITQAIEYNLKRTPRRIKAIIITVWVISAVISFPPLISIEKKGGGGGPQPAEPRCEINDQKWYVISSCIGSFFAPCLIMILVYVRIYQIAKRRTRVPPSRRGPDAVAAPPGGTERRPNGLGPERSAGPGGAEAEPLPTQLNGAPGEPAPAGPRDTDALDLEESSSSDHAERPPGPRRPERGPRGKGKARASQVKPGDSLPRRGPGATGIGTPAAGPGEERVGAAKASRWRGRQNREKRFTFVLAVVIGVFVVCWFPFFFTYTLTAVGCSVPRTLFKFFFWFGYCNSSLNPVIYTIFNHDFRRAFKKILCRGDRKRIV
The test is described as follows: cell-based.
Method: Experiment 1: Determination of alpha2A and alpha2C Antagonistic Activity In Vitro
The growth medium was removed and the cells were incubated with the test compounds and the FLIPR Calcium 6 Assay reagent (Molecular Devices, CA, USA) for 2 h at 37° C. in dark. The test compounds (concentrations in cells 100 pM-10 μM) were dissolved in Probenecid-Ringer consisting of 150 mM NaCl, 3 mM KCl, 1.2 mM MgCl2, 1 mM CaCl2, 5 mM glucose, 20 mM HEPES and 2.5 mM probenecid (pH 7.4 adjusted with 1.0 M NaOH). […] All experiments were performed at 37° C. For agonism measurements the test compounds dissolved in Probenecid-Ringer were applied by FLIPR Tetra at 15 s time point. In order to determine antagonism, the cells were stimulated either with 100 nM adrenaline or noradrenaline and the test compounds were added to the cells 2 h before the experiment with the FLIPR Calcium 6 Assay reagent. […] Typically, there were four replicates at each concentration and six different dose levels. […] The minimum fluorescence value subtracted from the maximum value for each well was used in the calculations. ScreenWorks version 4.0 software was used for analyzing the results. Fitting of the antagonist dose-response results was performed with the free Hill equation and the IC50 values were fitted with IDBS XE software using model 200: y=(A+(B/(1+((x/C)̂D)))), where A is the curve maximum, B the curve minimum and C equals the EC50 value. D is slope factor (Hill). Kb was calculated with the Cheng-Prusoff equation Kb=A/((B/C)+1), where A is the IC50 of antagonist, B the concentration of agonist and C the EC50 of the agonist.

Test [2] deals with T2, human alpha2C receptors (Homo sapiens, UniProt P18825).
T2 sequence (P18825 1-462): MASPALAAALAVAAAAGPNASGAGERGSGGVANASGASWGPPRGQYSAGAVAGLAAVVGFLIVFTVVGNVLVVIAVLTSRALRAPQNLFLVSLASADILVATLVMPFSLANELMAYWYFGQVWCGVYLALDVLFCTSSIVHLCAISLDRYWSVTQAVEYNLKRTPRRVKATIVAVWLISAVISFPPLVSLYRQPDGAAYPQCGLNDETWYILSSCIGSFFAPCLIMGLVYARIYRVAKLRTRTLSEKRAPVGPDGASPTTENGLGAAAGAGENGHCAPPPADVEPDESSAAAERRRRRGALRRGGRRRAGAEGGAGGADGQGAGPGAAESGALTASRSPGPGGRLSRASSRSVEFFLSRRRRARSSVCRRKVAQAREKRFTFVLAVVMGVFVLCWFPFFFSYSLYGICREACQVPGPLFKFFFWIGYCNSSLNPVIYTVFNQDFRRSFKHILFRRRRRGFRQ
The test is described as follows: Determination of alpha2C antagonistic activity in vitro (FLIPR calcium assay). As to conditions: for Kb: Alpha 2C Adrenaline Kb, Kb calculated from IC50 with the Cheng-Prusoff equation, adrenaline as agonist, CHO cells, human alpha2C.

The structures appear in SMILES notation. pIC50: −log10 of the molar value. Structures can show the parent of a compound that is named as a salt.

A word on the pIC50: it is the IC50 on a negative log10 scale, so that one unit is a factor of ten. For `C[C@H]1C(=O)N([C@H]2CCCN(C[C@H]3COc4ccccc4O3)C2)C(=O)[C@@H]1C` [example 4, (3R,4R)-1-((S)-1-(((S)-2,3-Dihydrobenzo[b][1,4]dioxin-2-yl)methyl)piperidin-3-yl)-3,4-dimethylpyrrolidine-2,5-dione], in test [1], the pIC50 was less than 5.00 and the Kb was more than 449 nM. Besides, in test [2], the pIC50 was 8.75 and the Kb is 0.18 nM.
For `COc1ccccc1C1=CC(=O)N([C@H]2CCCN(C[C@H]3COc4ccccc4O3)C2)C1` [example 43, 1-((S)-1-(((S)-2,3-Dihydrobenzo[b][1,4]dioxin-2-yl)methyl)piperidin-3-yl)-4-(2-methoxyphenyl)-1H-pyrrol-2(5H)-one formate] the same measures were less than 5.00, more than 449 nM, more than 11.00 and less than 0.001 nM.
In test [1], `Cc1nc2cncnc2n1[C@H]1CCCN(C[C@H]2COc3ccccc3O2)C1` [example 160, 9-((S)-1-(((S)-2,3-Dihydrobenzo[b][1,4]dioxin-2-yl)methyl)piperidin-3-yl)-8-methyl-9H-purine] showed a pIC50 of less than 5.00 and a Kb of more than 449 nM. In test [2], the pIC50 was 9.82 and the Kb was 0.016 nM.
Turning to `O=c1[nH]c2cc(F)ccc2n1[C@H]1CCCN(C[C@H]2COc3ccccc3O2)C1` [example 88, 1-((S)-1-(((S)-2,3-Dihydrobenzo[b][1,4]dioxin-2-yl)methyl)piperidin-3-yl)-5-fluoro-1H-benzo[d]imidazol-2(3H)-one], the pIC50 in test [1] was less than 5.00; in test [2], more than 10.00. Besides, the values for the Kb in test [1] and in test [2] were more than 449 nM and less than 0.01 nM, respectively.
With `COc1ccc2c(c1OC)C(=O)N([C@H]1CCCN(C[C@H]3COc4ccccc4O3)C1)C2=O` [example 66, 2-((S)-1-(((S)-2,3-Dihydrobenzo[b][1,4]dioxin-2-yl)methyl)piperidin-3-yl)-4,5-dimethoxyisoindoline-1,3-dione hydrochloride], the pIC50 in test [1] is less than 5.00; in test [2], more than 11.00. In addition, the Kb in test [1] is more than 449 nM; in test [2] it was less than 0.001 nM.
Regarding `O=c1[nH]c2ccc(F)cc2n1[C@H]1CCCN(C[C@H]2COc3ccccc3O2)C1` [example 86, 1-((S)-1-(((S)-2,3-Dihydrobenzo[b][1,4]dioxin-2-yl)methyl)piperidin-3-yl)-6-fluoro-1H-benzo[d]imidazol-2(3H)-one], the pIC50 in test [1] was less than 5.00; in test [2], more than 10.00. Moreover, the Kb in test [1] was more than 449 nM; in test [2], less than 0.01 nM.
In test [1], `O=C1C(=O)N([C@H]2CCCN(C[C@H]3COc4ccccc4O3)C2)C(=O)N1c1ccccc1` [example 129, 1-((S)-1-(((S)-2,3-Dihydrobenzo[b][1,4]dioxin-2-yl)methyl)-piperidin-3-yl)-3-phenylimidazolidine-2,4,5-trione] gave a pIC50 of less than 5.00 and a Kb of more than 449 nM. In test [2], the pIC50 was 8.80 and the Kb is 0.162 nM.
In test [1], `CC1(C)CCN([C@H]2CCCN(C[C@H]3COc4ccccc4O3)C2)C1=O` [example 100, 1-((S)-1-(((S)-2,3-Dihydrobenzo[b][1,4]dioxin-2-yl)methyl)piperidin-3-yl)-3,3-dimethylpyrrolidin-2-one] showed a negative-log IC50 (pIC50) of less than 5.00 and a Kb of more than 449 nM. In test [2], the pIC50 was 8.70 and the Kb was 0.203 nM.
The matching figures for `Cc1nc2c(F)cc(F)cc2n1[C@H]1CCCN(C[C@H]2COc3ccccc3O2)C1` [example 27, 1-((S)-1-(((S)-2,3-Dihydrobenzo[b][1,4]dioxin-2-yl)methyl)piperidin-3-yl)-4,6-difluoro-2-methyl-1H-benzo[d]imidazole]: less than 5.00, more than 449 nM, 7.68 and 2.09 nM.

These data come from patent US20190152992A1, “BENZODIOXANE DERIVATIVES AND THEIR PHARMACEUTICAL USE” (Orion Corporation, priority 2016, published 2019).
